Reference: patent US6468983B2, “RNase L activators and antisense oligonucleotides effective to treat telomerase-expressing malignancies” (The Cleveland Clinic Foundation, priority 1997, dated 2002)
Entries after “also recorded” stand apart in the source; their conditions may differ.

Legend:
[1] = tested on: normal human astrocytes (PIN); assay: Cell viability assay, trypan blue, same protocol on telomerase-negative normal astrocytes; format: cell-based; conditions: same protocol as the tumor cells, over the treatment period
Method: The cytotoxic effect of 2-5A activator antisense complexes on tumor cells was determined using the trypan blue dye exclusion assay. Tumor cells were seeded at 10^4 cells/well (0.1 ml) in 96-well flat-bottomed plates and incubated overnight at 37° C. Then, oligonucleotides (5 micromolar) in water were added into cells every 12 hr. On successive days the cells were harvested and 25% of the total was examined microscopically to determine the percentage of viable cells, another 25% was replated to continue treatment and the remaining 50% were used for the TRAP assay.

[2] = tested on: U251-MG cells; assay: TUNEL assay on cultured cells treated with spA4-anti-hTR; format: cell-based, human; conditions: treated cells fixed and stained
[3] = tested on: U373 cells; assay: Viable cell count (trypan blue), daily oligonucleotide plus lipofectamine; format: cell-based, human
Method: (§1) Cells (10,000/well) were seeded on 96 well tissue culture dishes, and treated every 24 hours. A 10× concentrated mixture of oligonucleotides plus lipofectamine in water was prepared containing 5 micromolar oligonucleotide and 80 microgram per ml lipofectamine™ (Gibco/BRL) and incubated for 10 min at room temperature. Media was removed from the cells, 10 microliters of the oligonucleotide/lipofectamine mixture was added directly to the cultured cells followed by 90 microliters of media plus serum. The media was changed with oligonucleotide/lipofectamine treatments every 24 h. Cells were passaged when the control cells reached confluency, and viable cells were counted after staining with Trypan Blue (GibcoBRL). The numbers of cells treated only with lipofectamine were used as the control to calculate percentages of cell survival or viability.

[4] = tested on: human melanoma cell line, A375; assay: Viable cell count, daily oligonucleotide plus lipofectamine; format: cell-based; conditions: A375, 0.5 micromolar daily plus lipofectamine
Method: as §1
(§2) Similarly, the viability of the breast cancer cell line, MDA468, was reduced by 64% by SpA4-anti-hTR, while the control oligonucleotides reduced cell viability by <20% (FIG. 6). Viability of the human melanoma cell line, A375, was reduced by 43% in three days by SpA4-anti-hTR, while the control oligonucleotides had no effect (FIG. 7). […] Viability of a third human melanoma cell line, SK-MEL-5, was reduced by 43% by SpA4-anti-hTR, with minimal effects by the control oligonucleotides (FIG. 7). Two prostate tumor cells lines, PC3 and DU145, were suppressed by SpA4-anti-hTR treatments by 45% and 60%, respectively (FIGS. 6 and 10). […] The viability of the malignant glioma cell line, U373, was reduced by about 60% in 3 days, with intermediate effects by the control oligonucleotides (FIG. 6). Therefore, the proliferation and survival of every tumor cell type tested was inhibited by SpA4-anti-hTR. […] In contrast, there was no apoptosis detected in the control cells treated with lipofectamine without oligonucleotide (FIG. 12 upper panel).

[5] = tested on: human melanoma cell line, SK-MEL-2; assay: as above; format: cell-based; conditions: SK-MEL-2, 0.5 micromolar daily plus lipofectamine
Method: as §1, §2

[6] = tested on: human melanoma cell line, SK-MEL-5; assay: as above; format: cell-based; conditions: SK-MEL-5, 0.5 micromolar daily plus lipofectamine
Method: as §1, §2

[7] = tested on: U373 human malignant glioma cells; assay: TUNEL assay for apoptosis, oligonucleotide plus lipofectamine; format: cell-based
Method: To further determine whether treatment with oligonucleotides induced apoptosis, tumor cells and tissues were stained by the terminal deoxynucleotidyl transferase (TdT)-mediated DUTP nick end labeling (TUNEL) technique using Apo-Tag kit (peroxidase conjugated) (Oncor Inc., Gaithersburg, Md.). The staining of apoptotic cells was done on U373MG cells. Oligonucleotides with lipofectamine was added to the cells every day. The final concentrations were 0.5 micromolar and 8 microgram/ml for oligo and lipofectamine, respectively. Pictures were taken after 3 days of treatment.

[8] = tested on: A375 tumors; assay: Subcutaneous tumors in nude mice, intratumoral oligonucleotide plus lipofectamine; format: in vivo
Method: (§3) RCC and A375 tumor cells (500,000 cells per tumor) were injected subcutaneously. The treatments, begun 8 days after tumor cell inoculation, was with 40 microliter of 25 micromolar SpA4-anti-hTR plus 1 microliter (2 microgram) lipofectamine injected in each tumor every day.

[9] = tested on: RCC tumors; assay: as above; format: in vivo
Method: as §3

[10] = tested on: U373-MG cells; assay: Combination with cisplatin in vitro, MTT assay; format: cell-based, human; conditions: treatment with spA4-anti-hTR
Method: FIG. 17. Effect of combining 2-5A-anti-hTR with cisplatin on malignant glioma U373-MG cells in vitro and in vivo. FIG. 17A Tumor cells were treated with 2-5A-anti-hTR (0.5 μM, every 24 hr) mixed with Lipofectamine (1.0 μl/25 μl DMEM) or cisplatin for three days, and their viability was determined by MTT assay. Values represent the means±S.D. FIG. 17B Tumors from U373-MG cells (1.0×10^6 cells in 0.05 ml serum free DMEM and 0.05 ml matrigel) were established subcutaneously in nude mice. After four or five weeks when the tumors were approximately 60-100 mm^3, spA4-anti-hTR (5 nmol/20 μl sterile distilled water) were administrated directly into the tumors daily for 7 days. Cisplatin (1.0 or 5.0 mg/kg/mice) was administered intraperitoneally on Days 1, 3 and 5. Five Mice were used in each treatment group. Tumor volume was then determined using calipers, and the mean sizes ±S.D. were calculated.
To determine if the anti-malignant glioma cell activity of chemotherapeutic agent, cisplatin, could be enhance with SpA4-anti-hTR, a combination therapy protocol was devised (FIG. 17). The point at which 50% cell death was achieved was using 1 microgram per ml of cisplatin plus 0.5 micromolar of SpA4-anti-hTR; whereas in the absence of SpA4-anti-hTR, >10 micrograms per ml of cisplatin were required to achieve 50% cell death (FIG. 17). […] Furthermore, we determined the effect of combining 2-5A-anti-hTR with cisplatin on U373-MG cells in vitro and in vivo. […] The IC50 of cisplatin was reduced from 10.0 to 1.0 μg/ml by combination of spA4-anti-hTR.

[11] = U373, 0.5 micromolar daily plus lipofectamine, 3 days

## Sp5′A2′p(5′A2p)3-[(Bu)p]2-5′GCG CGG GGA GCA AAA GCA C3′-3′T5′ (antisense GCGCGGGGAGCAAAAGCAC; 5'-thiophosphate 2-5A tetramer, butanediol linkers, 3'-3'T cap, chemistry not fully specified) [spA4-anti-hTR, 2-5A tetramer linked by butanediol linkers to 19-mer antisense against human telomerase RNA nucleotides 76 to 94]
[1]
  reduction in cell viability: less than 5%
[1]; listed as SpA4-anti-hTR
  reduction in cell viability: 2-3%
[2]
  apoptotic cell death by TUNEL (in words): increased number of darkly staining nuclei
[3]; 0.5 micromolar once a day with lipofectamine versus without
  increase in the anti-tumor cell effect by use of lipofectamine: about 10 fold
[3]; [11]
  effect on growth/viability (in words): specifically suppressed growth
  reduction in viability: about 60%
[3]; U373, 0.5 micromolar daily plus lipofectamine, 7 days, two separate cultures
  cell viability reduced to: < 2%
[3]; U373, 0.5 micromolar daily plus lipofectamine, 8 days
  reduction in viability: 90%
[3]; with lipofectamine versus without
  reduction of the dose required to block proliferation and survival of tumor cells using lipofectamine: 10 fold
[4]
  effect on growth/viability (in words): specifically suppressed growth
[4]; three days
  reduction in viability: 43%
[5]
  effect on growth/viability (in words): specifically suppressed growth
  survival: < 0.1%
[6]
  effect on growth/viability (in words): specifically suppressed growth
  reduction in viability: 43%
[7]; 0.5 micromolar daily plus lipofectamine for 3 days
  apoptosis by TUNEL (in words): apoptosis was clearly visible
[7]; over time of treatment
  apoptosis by TUNEL assay for DNA breakage (in words): time-dependent increase in apoptotic cells; also recorded: caused apoptosis
[8]; A375, 40 microliter of 25 micromolar plus lipofectamine intratumoral daily, seven days
  increase in tumor size: 17%
[8]; A375 subcutaneous, oligonucleotide plus lipofectamine from day 8
  tumor cell growth (in words): Suppression
[9]; RCC subcutaneous, oligonucleotide plus lipofectamine from day 8
  tumor cell growth (in words): Suppression
[9]; RCC, 40 microliter of 25 micromolar plus lipofectamine intratumoral daily, seven day period
  increase in tumor size: 14%
[10]
  susceptibility of U373-MG cells to cisplatin (in words): increased the susceptibility
